pIC50: −log10 of the molar value.
Tests used:
PBMC = assay: Concentration required to inhibit LPS-induced TNFalpha production in human peripheral blood mononuclear cells; n=3; format: functional, cell-based
[1] = Clearance of compound in mice after intravenous administration; format: ADME, organism-based; settings: mouse, in vivo
[2] = Metabolic rate as a measure of compound stability in human liver microsomes; format: ADME, Microsome
[3] = Oral bioavailability of compound after administration of a solution dose in PEG400; format: ADME, organism-based; settings: eutheria, in vivo
[4] = Metabolic rate as a measure of compound stability in rat liver microsomes; format: ADME, Microsome
PHA-Ly = assay: In vitro cytotoxic effect of compound (30 uM) on PHA blast cells compared to control after 24 hours of treatment; format: functional, Homo sapiens
[5] = Half-life of compound evaluated in mice after intravenous administration; format: ADME, organism-based; settings: mouse, in vivo
[6] = In vitro permeability of compound into Caco-2 cells; format: ADME, cell-based; settings: human, read-out: Permeability
MAP kinase p38 = MAP kinase p38 (Homo sapiens, UniProt O15264+Q15759+Q16539+P53778); assay: Binding affinity for human p38 MAP kinase expressed in Escherichia coli using [gamma-33P]ATP; n=4
[7] = target: MAP kinase-activated protein kinase 2 (Homo sapiens, UniProt P49137); assay: Inhibitory concentration against MK2
[8] = target: Cyclin-dependent kinase 2 (Homo sapiens, UniProt P24941); assay: Inhibitory concentration against CDK2
[9] = target: Fibroblast growth factor receptor (Homo sapiens, UniProt P22607+P11362+P22455+P21802); assay: Inhibitory concentration against FGF receptor; format: protein assay
[10] = target: Vascular endothelial growth factor receptor 2 (Homo sapiens, UniProt P35968); assay: Inhibitory concentration against KDR
[11] = target: Mitogen-activated protein kinase 11 (Homo sapiens, UniProt Q15759); assay: Inhibitory concentration against p38 beta
[12] = target: Mitogen-activated protein kinase 12 (Homo sapiens, UniProt P53778); assay: Inhibitory concentration against p38 gamma
[13] = target: Mitogen-activated protein kinase 13 (Homo sapiens, UniProt O15264); assay: Inhibitory concentration against p38 delta
[14] = target: Mitogen-activated protein kinase 1 (Homo sapiens, UniProt P28482); assay: Inhibitory concentration against ERK
[15] = target: Receptor tyrosine-protein kinase erbB-2 (Homo sapiens, UniProt P04626); assay: Inhibitory concentration against HER2 (ErbB2)
[16] = target: Serine/threonine-protein kinase AKT (Homo sapiens, UniProt P31751+Q9Y243+P31749); assay: Inhibitory concentration against Akt; format: protein assay
[17] = target: Inhibitor of NF-kappa-B kinase (IKK) (Homo sapiens, UniProt O14920+O15111+Q9Y6K9); assay: Inhibitory concentration against IKK; format: protein-complex assay
[18] = target: Tyrosine-protein kinase SYK (Homo sapiens, UniProt P43405); assay: Inhibitory concentration against Syk
[19] = target: RAF proto-oncogene serine/threonine-protein kinase (Homo sapiens, UniProt P04049); assay: Inhibitory concentration against Raf
[20] = target: Insulin-like growth factor 1 receptor (Homo sapiens, UniProt P08069); assay: Inhibitory concentration against IGF-IR
[21] = target: cAMP-dependent protein kinase (PKA) (Homo sapiens, UniProt P22694+P17612+P22612); assay: Inhibitory concentration against PKA; format: protein assay
[22] = target: Tyrosine-protein kinase ITK/TSK (Homo sapiens, UniProt Q08881); assay: Inhibitory concentration against Itk
[23] = target: Tyrosine-protein kinase JAK3 (Homo sapiens, UniProt P52333); assay: Inhibitory concentration against JAK3
[24] = target: Mitogen-activated protein kinase 14 (Homo sapiens, UniProt Q16539); assay: Inhibitory concentration against p38 alpha
[25] = target: Tyrosine-protein kinase Lck (Homo sapiens, UniProt P06239); assay: Inhibitory concentration against Lck
Protein kinase C (PKC) = assay: Inhibitory concentration against PKC; format: protein assay
[26] = target: Hepatocyte growth factor receptor (Homo sapiens, UniProt P08581); assay: Inhibitory concentration against Met
[27] = target: Dual specificity mitogen-activated protein kinase kinase 1 (Homo sapiens, UniProt Q02750); assay: Inhibitory concentration against MEK
[28] = target: Glycogen synthase kinase-3 (Homo sapiens, UniProt P49840+P49841); assay: Inhibitory concentration against GSK-3; format: protein assay

Mitogen-activated protein kinase 1, sequence (P28482 whole entry): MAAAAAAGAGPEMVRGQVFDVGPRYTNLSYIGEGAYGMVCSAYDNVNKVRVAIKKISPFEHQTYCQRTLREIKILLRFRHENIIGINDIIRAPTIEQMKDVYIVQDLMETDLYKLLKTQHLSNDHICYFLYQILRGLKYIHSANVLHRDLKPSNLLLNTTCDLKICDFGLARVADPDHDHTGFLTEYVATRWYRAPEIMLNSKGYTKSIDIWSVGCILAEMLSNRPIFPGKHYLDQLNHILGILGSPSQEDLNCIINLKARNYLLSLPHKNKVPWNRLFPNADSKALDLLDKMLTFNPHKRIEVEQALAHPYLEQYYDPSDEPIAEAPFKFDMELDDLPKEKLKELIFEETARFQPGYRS
Tyrosine-protein kinase ITK/TSK, sequence (Q08881 whole entry): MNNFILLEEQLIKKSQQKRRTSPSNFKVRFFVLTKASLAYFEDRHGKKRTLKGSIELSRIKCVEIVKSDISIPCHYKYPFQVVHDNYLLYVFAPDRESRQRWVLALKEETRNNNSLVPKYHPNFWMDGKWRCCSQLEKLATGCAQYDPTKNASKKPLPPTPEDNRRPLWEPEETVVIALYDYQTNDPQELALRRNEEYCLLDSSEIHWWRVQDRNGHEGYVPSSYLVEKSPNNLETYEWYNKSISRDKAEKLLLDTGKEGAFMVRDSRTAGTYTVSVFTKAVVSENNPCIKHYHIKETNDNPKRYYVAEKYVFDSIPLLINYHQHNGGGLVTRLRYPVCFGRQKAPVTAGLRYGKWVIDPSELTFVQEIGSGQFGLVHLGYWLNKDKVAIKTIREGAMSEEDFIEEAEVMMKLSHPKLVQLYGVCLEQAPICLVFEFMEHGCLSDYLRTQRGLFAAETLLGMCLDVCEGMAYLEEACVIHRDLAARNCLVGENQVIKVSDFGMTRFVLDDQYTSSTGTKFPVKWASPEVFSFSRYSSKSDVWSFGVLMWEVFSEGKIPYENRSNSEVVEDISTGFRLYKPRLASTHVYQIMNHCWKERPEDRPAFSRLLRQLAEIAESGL
Mitogen-activated protein kinase 14, sequence (Q16539 whole entry): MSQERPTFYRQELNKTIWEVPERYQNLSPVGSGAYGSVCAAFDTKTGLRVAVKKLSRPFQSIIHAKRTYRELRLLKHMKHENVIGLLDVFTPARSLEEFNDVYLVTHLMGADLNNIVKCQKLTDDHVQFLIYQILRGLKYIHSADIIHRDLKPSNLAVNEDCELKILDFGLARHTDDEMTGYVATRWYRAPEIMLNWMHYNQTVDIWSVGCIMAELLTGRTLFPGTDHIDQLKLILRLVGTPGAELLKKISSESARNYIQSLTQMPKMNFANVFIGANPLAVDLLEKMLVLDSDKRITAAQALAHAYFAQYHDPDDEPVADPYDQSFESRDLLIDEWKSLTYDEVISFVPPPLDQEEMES
Hepatocyte growth factor receptor, sequence (P08581 whole entry): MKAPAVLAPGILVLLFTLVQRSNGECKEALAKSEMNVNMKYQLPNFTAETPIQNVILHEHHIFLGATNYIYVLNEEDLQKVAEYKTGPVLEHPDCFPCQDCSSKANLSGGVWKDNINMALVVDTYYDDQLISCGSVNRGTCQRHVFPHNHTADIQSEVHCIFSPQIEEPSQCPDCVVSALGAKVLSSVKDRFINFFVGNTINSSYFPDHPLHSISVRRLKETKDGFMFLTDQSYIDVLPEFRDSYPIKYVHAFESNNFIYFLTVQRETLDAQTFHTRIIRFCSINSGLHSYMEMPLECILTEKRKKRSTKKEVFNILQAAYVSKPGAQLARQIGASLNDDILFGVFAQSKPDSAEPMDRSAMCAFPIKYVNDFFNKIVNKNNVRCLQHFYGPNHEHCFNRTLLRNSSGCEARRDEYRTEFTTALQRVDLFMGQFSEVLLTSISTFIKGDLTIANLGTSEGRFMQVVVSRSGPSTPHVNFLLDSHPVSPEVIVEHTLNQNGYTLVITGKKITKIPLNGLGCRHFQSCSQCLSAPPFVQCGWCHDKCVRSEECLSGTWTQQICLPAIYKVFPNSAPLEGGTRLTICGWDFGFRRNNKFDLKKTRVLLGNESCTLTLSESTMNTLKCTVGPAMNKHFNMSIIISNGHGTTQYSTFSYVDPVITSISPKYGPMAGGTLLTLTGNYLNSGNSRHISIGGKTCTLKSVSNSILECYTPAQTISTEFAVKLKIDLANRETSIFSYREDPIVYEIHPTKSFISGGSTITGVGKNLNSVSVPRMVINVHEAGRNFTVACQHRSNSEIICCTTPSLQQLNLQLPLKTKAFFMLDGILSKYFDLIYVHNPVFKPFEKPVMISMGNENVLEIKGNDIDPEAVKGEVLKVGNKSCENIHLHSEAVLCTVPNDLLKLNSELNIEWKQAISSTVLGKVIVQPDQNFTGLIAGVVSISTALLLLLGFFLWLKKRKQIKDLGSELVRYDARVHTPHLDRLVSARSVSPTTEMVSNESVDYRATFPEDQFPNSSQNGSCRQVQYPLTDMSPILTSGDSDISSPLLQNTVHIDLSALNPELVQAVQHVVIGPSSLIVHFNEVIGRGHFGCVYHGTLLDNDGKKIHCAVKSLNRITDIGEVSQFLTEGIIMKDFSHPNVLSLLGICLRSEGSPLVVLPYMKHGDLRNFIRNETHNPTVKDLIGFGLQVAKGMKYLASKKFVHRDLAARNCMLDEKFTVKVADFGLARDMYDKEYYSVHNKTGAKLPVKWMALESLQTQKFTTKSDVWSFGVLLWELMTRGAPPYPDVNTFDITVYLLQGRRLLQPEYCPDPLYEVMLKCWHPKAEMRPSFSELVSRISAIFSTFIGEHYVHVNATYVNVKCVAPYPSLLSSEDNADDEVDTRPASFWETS
Receptor tyrosine-protein kinase erbB-2, sequence (P04626 whole entry): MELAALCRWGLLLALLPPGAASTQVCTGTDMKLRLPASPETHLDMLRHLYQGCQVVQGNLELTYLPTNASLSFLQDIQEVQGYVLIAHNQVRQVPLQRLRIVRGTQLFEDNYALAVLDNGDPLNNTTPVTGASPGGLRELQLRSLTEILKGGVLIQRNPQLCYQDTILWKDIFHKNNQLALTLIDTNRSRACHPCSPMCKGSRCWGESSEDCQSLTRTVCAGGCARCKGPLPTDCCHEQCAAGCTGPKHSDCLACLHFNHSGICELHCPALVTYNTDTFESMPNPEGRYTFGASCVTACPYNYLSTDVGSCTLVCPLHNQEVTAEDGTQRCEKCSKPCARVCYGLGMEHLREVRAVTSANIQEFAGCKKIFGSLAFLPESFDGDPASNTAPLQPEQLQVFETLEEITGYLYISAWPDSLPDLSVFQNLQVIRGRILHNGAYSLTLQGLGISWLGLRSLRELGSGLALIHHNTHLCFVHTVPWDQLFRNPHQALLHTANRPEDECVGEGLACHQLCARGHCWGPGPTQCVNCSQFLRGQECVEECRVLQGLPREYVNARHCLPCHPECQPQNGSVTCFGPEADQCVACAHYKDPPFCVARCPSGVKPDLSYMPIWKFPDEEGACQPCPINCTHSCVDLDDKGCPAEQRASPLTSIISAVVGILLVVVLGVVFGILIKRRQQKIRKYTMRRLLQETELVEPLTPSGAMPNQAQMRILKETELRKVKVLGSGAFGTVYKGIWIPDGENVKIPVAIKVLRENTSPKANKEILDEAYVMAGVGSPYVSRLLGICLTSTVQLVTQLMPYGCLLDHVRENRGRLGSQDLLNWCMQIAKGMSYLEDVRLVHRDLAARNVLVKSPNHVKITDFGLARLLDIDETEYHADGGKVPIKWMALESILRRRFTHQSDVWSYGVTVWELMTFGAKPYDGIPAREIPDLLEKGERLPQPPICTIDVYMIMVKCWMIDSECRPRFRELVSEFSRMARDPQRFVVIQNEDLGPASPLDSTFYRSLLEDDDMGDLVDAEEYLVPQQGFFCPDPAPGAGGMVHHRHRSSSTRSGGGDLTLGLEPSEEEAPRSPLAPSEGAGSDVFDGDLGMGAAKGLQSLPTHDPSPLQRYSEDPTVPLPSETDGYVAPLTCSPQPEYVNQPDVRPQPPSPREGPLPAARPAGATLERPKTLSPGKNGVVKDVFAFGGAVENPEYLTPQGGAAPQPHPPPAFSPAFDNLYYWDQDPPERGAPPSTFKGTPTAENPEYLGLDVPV
Tyrosine-protein kinase Lck, sequence (P06239 whole entry): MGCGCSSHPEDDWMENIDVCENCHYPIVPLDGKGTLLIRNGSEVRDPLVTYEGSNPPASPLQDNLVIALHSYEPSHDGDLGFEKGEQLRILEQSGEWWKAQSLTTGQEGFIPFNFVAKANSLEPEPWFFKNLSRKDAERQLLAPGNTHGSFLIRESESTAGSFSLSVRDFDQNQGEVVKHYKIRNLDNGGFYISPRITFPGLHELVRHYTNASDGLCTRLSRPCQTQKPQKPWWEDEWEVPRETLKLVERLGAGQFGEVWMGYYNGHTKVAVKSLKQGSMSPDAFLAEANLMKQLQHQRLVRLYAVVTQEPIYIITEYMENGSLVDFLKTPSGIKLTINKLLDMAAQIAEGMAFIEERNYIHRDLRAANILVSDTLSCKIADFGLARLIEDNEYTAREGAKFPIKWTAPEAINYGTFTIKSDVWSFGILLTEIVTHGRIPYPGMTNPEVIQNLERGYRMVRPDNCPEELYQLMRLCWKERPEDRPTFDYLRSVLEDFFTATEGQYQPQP
Dual specificity mitogen-activated protein kinase kinase 1, sequence (Q02750 whole entry): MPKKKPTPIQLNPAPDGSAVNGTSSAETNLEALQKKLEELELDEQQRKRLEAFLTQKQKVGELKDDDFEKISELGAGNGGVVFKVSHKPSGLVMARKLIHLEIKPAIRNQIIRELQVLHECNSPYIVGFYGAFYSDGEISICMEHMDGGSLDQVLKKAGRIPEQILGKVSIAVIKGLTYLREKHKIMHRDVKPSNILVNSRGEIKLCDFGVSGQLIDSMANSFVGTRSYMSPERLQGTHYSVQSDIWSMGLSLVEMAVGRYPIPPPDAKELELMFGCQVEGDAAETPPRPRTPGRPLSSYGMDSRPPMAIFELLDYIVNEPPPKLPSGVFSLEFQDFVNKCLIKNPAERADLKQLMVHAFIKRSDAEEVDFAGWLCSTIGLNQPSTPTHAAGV

CNc1nc(Nc2cc(C(=O)NOC)ccc2C)c(C#N)c(N(C)CC(C)(C)C)n1
pIC50 (PBMC): 4.19

CONC(=O)c1ccc(C)c(Nc2ncnc(N(C)CC(C)(C)C)c2C#N)c1
pIC50 (PBMC): 4.38

CCn1nccc1NC(=O)c1ccc(C)c(Nc2ncnc(NC(C)C)c2C#N)c1
pIC50 (PBMC): 3.89

CONC(=O)c1ccc(C)c(Nc2nc(N3CCCN(C)CC3)nc(N(C)CC(C)(C)C)c2C#N)c1
pIC50 (PBMC): 6.48

Cc1ccc(C(=O)Nc2ccon2)cc1Nc1nc(N)nc(NC(C)C)c1C#N
pIC50 (PBMC): 4.74

Cc1ccc(C(=O)Nc2ccon2)cc1Nc1nc(N)nc(NC2CCCC2)c1C#N
pIC50 (PBMC): 5.82

CNc1ncnc(Nc2cc(C(=O)NOC)ccc2C)c1C#N
pIC50 (PBMC): < 3.60

CCn1nccc1NC(=O)c1ccc(C)c(Nc2ncnc(NC3CCCC3)c2C#N)c1
pIC50 (PBMC): 4.14

CCn1nccc1NC(=O)c1ccc(C)c(Nc2nc(N)nc(NC3CCCC3)c2C#N)c1
pIC50 (PBMC): 4.68

Cc1ccc(C(=O)Nc2ccon2)cc1Nc1ncnc(NC(C)C)c1C#N
clearance [1]: 28.3 mL/min/kg
Metabolic rate [2]: 0.012 nmol/min*mg of protein
bioavailability [3]: 100%
pIC50 (PBMC): 5.06
Metabolic rate [4]: 0.22 nmol/min*mg of protein
Control (PHA-Ly): 82%
half-life [5]: 1.7 h
Papp [6]: 23.9 ×10⁻⁶ cm/s

CONC(=O)c1ccc(C)c(Nc2ncnc(NC3CCCC3)c2C#N)c1
Ki (MAP kinase p38): 0.00042 µM
pIC50 (PBMC): 5.39

CONC(=O)c1ccc(C)c(Nc2nc(N)nc(N(C)CC(C)(C)C)c2C#N)c1
pIC50 (PBMC): 4.77

CCn1nccc1NC(=O)c1ccc(C)c(Nc2nc(N)nc(NC(C)C)c2C#N)c1
pIC50 (PBMC): 4.17

CONC(=O)c1ccc(C)c(Nc2ncnc(NC(C)C)c2C#N)c1
pIC50 (PBMC): 5.34

CCCNc1ncnc(Nc2cc(C(=O)NOC)ccc2C)c1C#N
pIC50 (PBMC): 3.80

Cc1ccc(C(=O)Nc2ccon2)cc1Nc1ncnc(NC2CCCC2)c1C#N
pIC50 [7]: < 4.30
pIC50 [8]: < 4.00
IC50 [9]: > 50 µM
pIC50 [10]: < 4.52
pIC50 [11]: > 7.00
pIC50 [12]: < 4.52
pIC50 [13]: < 4.52
pIC50 [14]: < 5.30
pIC50 [15]: < 4.30
IC50 [16]: > 50 µM
pIC50 [17]: < 5.00
pIC50 [18]: < 4.30
pIC50 [19]: < 4.52
pIC50 (PBMC): 5.46
pIC50 [20]: < 4.30
IC50 [21]: > 50 µM
pIC50 [22]: < 4.30
pIC50 [23]: < 4.30
pIC50 [24]: 8.39
pIC50 [25]: < 4.30
IC50 (Protein kinase C (PKC)): > 50 µM
pIC50 [26]: < 4.30
pIC50 [27]: < 4.60
IC50 [28]: > 50 µM

Reference: ChEMBL document CHEMBL1141103, “5-Cyanopyrimidine derivatives as a novel class of potent, selective, and orally active inhibitors of p38alpha MAP kinase” (J Med Chem, 2005)
